Measured values taken from patent EP0153845A2, “CRF analogs” (THE SALK INSTITUTE FOR BIOLOGICAL STUDIES, priority 1984, dated 1985).
Square brackets hold non-standard residues; d marks the D form. Peptide text beside a SMILES is read from it. Nle = CCCC[C@H](N)C(=O)O

Target: T1, cultured rat pituitary cells (Rattus norvegicus, UniProt P35353)
T1 sequence (P35353 24-415): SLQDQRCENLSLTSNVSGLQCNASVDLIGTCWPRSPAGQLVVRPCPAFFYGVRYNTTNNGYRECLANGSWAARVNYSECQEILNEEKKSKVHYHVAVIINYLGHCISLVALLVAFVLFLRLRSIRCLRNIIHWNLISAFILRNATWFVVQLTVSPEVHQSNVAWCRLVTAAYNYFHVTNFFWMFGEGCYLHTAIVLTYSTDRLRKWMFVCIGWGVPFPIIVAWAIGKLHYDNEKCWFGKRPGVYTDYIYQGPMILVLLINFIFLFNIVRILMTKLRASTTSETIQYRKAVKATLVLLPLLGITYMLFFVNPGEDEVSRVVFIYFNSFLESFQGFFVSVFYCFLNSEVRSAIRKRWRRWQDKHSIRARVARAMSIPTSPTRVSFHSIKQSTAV
Assay: Block of ACTH and β-endorphin secretion by cultured rat pituitary cells by CRF antagonists (procedure of Example XLIII)
Type: cell-based
Details: general procedure of Example XLIII
Experimental: The effectiveness of synthetic CRF antagonists to block the secretion of ACTH and B-endorphin by cultured rat pituitary cells is measured using the procedure as generally set forth in Vale et al., Endocrinology, 91, 562 (1972). In vivo testing is carried out using the general procedure set forth in C. Rivier et al., Science, 218, 377 (1982).

## CCCC[C@H](NC(=O)[C@H](CCC(=O)O)NC(=O)[C@H](CC(C)C)NC(=O)[C@H](CCCC)NC(=O)[C@H](CCC(=O)O)NC(=O)[C@H](CCCNC(=N)N)NC(=O)[C@H](CC(C)C)NC(=O)[C@H](CC(C)C)NC(=O)[C@H](Cc1c[nH]cn1)NC(=O)[C@H](Cc1ccccc1)NC(=O)[C@@H](NC(=O)[C@H](CC(C)C)NC(=O)[C@@H](N)CC(=O)O)[C@@H](C)O)C(=O)N[C@@H](C)C(=O)N[C@@H](CCCCN)C(=O)N[C@@H](C)C(=O)N[C@@H](CCC(=O)O)C(=O)N[C@@H](CCC(N)=O)C(=O)N[C@@H](CCC(=O)O)C(=O)N[C@@H](C)C(=O)N[C@@H](CCC(=O)O)C(=O)N[C@@H](CCC(N)=O)C(=O)N[C@@H](C)C(=O)N[C@@H](C)C(=O)N[C@@H](CC(C)C)C(=O)N[C@@H](CC(N)=O)C(=O)N[C@@H](CCCNC(=N)N)C(=O)N[C@@H](CC(C)C)C(=O)N[C@@H](CC(C)C)C(=O)N[C@@H](CC(C)C)C(=O)N[C@@H](CCC(=O)O)C(=O)N[C@@H](CCC(=O)O)C(=O)N[C@@H](C)C(N)=O [[Nie^18,21]-AHC(9-41)] (H-DLTFHLLRE[Nle]LE[Nle]AKAEQEAEQAALNRLLLEEA-NH2)
  secretion of ACTH and β-END-LI (antagonist test): inhibits

## CCCC[C@H](N)C(=O)N[C@@H](CC(=O)O)C(=O)N[C@@H](CC(C)C)C(=O)N[C@@H](CO)C(=O)N[C@@H](Cc1ccccc1)C(=O)N[C@@H](Cc1c[nH]cn1)C(=O)N[C@@H](CC(C)C)C(=O)N[C@@H](CC(C)C)C(=O)N[C@@H](CCCNC(=N)N)C(=O)N[C@@H](CCC(=O)O)C(=O)N[C@H](C(=O)N[C@@H](CC(C)C)C(=O)N[C@@H](CCC(=O)O)C(=O)N[C@@H](CCSC)C(=O)N[C@@H](C)C(=O)N[C@@H](CCCNC(=N)N)C(=O)N[C@@H](C)C(=O)N[C@@H](CCC(=O)O)C(=O)N[C@@H](CCC(N)=O)C(=O)N[C@@H](CC(C)C)C(=O)N[C@@H](C)C(=O)N[C@@H](CCC(N)=O)C(=O)N[C@@H](CCC(N)=O)C(=O)N[C@@H](C)C(=O)N[C@@H](Cc1c[nH]cn1)C(=O)N[C@@H](CC(C)C)C(=O)N[C@@H](CC(N)=O)C(=O)N[C@@H](CCCNC(=N)N)C(=O)N[C@@H](CCCCN)C(=O)N[C@@H](CC(C)C)C(=O)N[C@@H](CCSC)C(=O)N[C@@H](CCC(=O)O)C(=O)N[C@H](C(=O)N[C@H](C(N)=O)[C@@H](C)CC)[C@@H](C)CC)C(C)C [[Nle^8, Ser^ll, Leu^33]-hCRF(8-41)] (H-[Nle]DLSFHLLREVLEMARAEQLAQQAHLNRKLMEII-NH2)
  secretion of ACTH and β-END-LI (antagonist test): inhibits

## CCCC[C@H](NC(=O)[C@H](CCC(=O)O)NC(=O)[C@H](CC(C)C)NC(=O)[C@H](CCCC)NC(=O)[C@H](CCC(=O)O)NC(=O)[C@H](CCCNC(=N)N)NC(=O)[C@H](CC(C)C)NC(=O)[C@H](CC(C)C)NC(=O)[C@H](Cc1c[nH]cn1)NC(=O)[C@H](Cc1ccccc1)NC(=O)[C@@H](NC(=O)[C@H](CC(C)C)NC(=O)[C@H](CC(=O)O)NC(=O)[C@@H](N)CC(C)C)[C@@H](C)O)C(=O)N[C@@H](C)C(=O)N[C@@H](CCCCN)C(=O)N[C@@H](C)C(=O)N[C@@H](CCC(=O)O)C(=O)N[C@@H](CCC(N)=O)C(=O)N[C@@H](CCC(=O)O)C(=O)N[C@@H](C)C(=O)N[C@@H](CCC(=O)O)C(=O)N[C@@H](CCC(N)=O)C(=O)N[C@@H](C)C(=O)N[C@@H](C)C(=O)N[C@@H](CC(C)C)C(=O)N[C@@H](CC(N)=O)C(=O)N[C@@H](CCCNC(=N)N)C(=O)N[C@@H](CC(C)C)C(=O)N[C@@H](CC(C)C)C(=O)N[C@@H](CC(C)C)C(=O)N[C@@H](CCC(=O)O)C(=O)N[C@@H](CCC(=O)O)C(=O)N[C@@H](C)C(N)=O [[Nle^18,21]-AHC(8-41)] (H-LDLTFHLLRE[Nle]LE[Nle]AKAEQEAEQAALNRLLLEEA-NH2)
  secretion of ACTH and β-END-LI (antagonist test): inhibits
